Data from publication PMC4186771 (Journal of neurochemistry, 2013).

Experiments:
[1] = target: α1β2γ2 Cys-less GABAAR [α1(C234A,C293A)β2(C288A)γ2(C244A,C303A)] (UniProt P18508+P47870+P62813, C260A/C282A/C312A/C319A/C341A); assay: GABA-induced currents, two-electrode voltage clamp in Xenopus laevis oocytes; format: cell-based, rat α1 and γ2s, human β2; conditions: for Modulation of the Cys-less receptor compared with WT: Cys-less versus wild-type α1β2γ2
bovine GABAAR = conditions: ref Li et al. 2010; cited from earlier work
[2] = system: recombinant α1β3γ2 GABAARs; conditions: in the presence of GABA; ref Chiara et al. 2013; cited from earlier work
wild-type GLIC = conditions: intra-subunit binding; ref Weng et al. 2010; cited from earlier work
[3] = target: α1β2(T225C,C288)γ2 GABAAR (UniProt P18508+P47870+P62813, C260A/C282A/C319A/C341A/T249C); assay: GABA-induced currents, two-electrode voltage clamp in Xenopus laevis oocytes; format: cell-based, rat α1 and γ2s, human β2; conditions: change vs initial response, compared with Cys-less; EC50 GABA; DTT 2 mM 2 min
[4] = target: α1(L232C)β2(F289C)γ2 GABAAR (UniProt P18508+P47870+P62813, C260A/C282A/C312A/C319A/C341A/F313C/L258C); assay: as above; format: cell-based, rat α1 and γ2s, human β2; conditions: change vs initial response, compared with Cys-less; 100 μM GABA; DTT 2 mM 2 min
[5] = target: α1(Q229C)β2(N265C)γ2 GABAAR (UniProt P18508+P47870+P62813, C260A/C282A/C312A/C319A/C341A/N289C/Q255C); assay: as above; format: cell-based, rat α1 and γ2s, human β2; conditions: change vs initial response, compared with Cys-less; EC50 GABA; DTT 2 mM 2 min
[6] = target: α1β2(N265C,L285C)γ2 GABAAR (UniProt P18508+P47870+P62813, C260A/C282A/C312A/C319A/C341A/L309C/N289C); assay: as above; format: cell-based, rat α1 and γ2s, human β2
[7] = target: α1β2(N265C,M286C)γ2 GABAAR (UniProt P18508+P47870+P62813, C260A/C282A/C312A/C319A/C341A/M310C/N289C); assay: as above; format: cell-based, rat α1 and γ2s, human β2; conditions: change vs initial response, compared with Cys-less; EC50 GABA; DTT 2 mM 2 min
[8] = target: α1β2(T225C,L285C)γ2 GABAAR (UniProt P18508+P47870+P62813, C260A/C282A/C312A/C319A/C341A/L309C/T249C); assay: as above; format: cell-based, rat α1 and γ2s, human β2
[9] = target: α1(Q229C)β2(M286C)γ2 GABAAR (UniProt P18508+P47870+P62813, C260A/C282A/C312A/C319A/C341A/M310C/Q255C); assay: as above; format: cell-based, rat α1 and γ2s, human β2; conditions: change vs initial response, compared with Cys-less; EC50 GABA; DTT 2 mM 2 min
[10] = target: α1β2(N265C,C288)γ2 GABAAR (UniProt P18508+P47870+P62813, C260A/C282A/C319A/C341A/N289C); assay: as above; format: cell-based, rat α1 and γ2s, human β2
[11] = target: α1(L232C)β2(M286C)γ2 GABAAR (UniProt P18508+P47870+P62813, C260A/C282A/C312A/C319A/C341A/L258C/M310C); assay: as above; format: cell-based, rat α1 and γ2s, human β2
[12] = target: α1β2(T225C,N265C)γ2 GABAAR (UniProt P18508+P47870+P62813, C260A/C282A/C312A/C319A/C341A/N289C/T249C); assay: as above; format: cell-based, rat α1 and γ2s, human β2; conditions: change vs initial response, compared with Cys-less; 1 mM GABA; DTT 2 mM 2 min
[13] = target: α1β2(N265C,F289C)γ2 GABAAR (UniProt P18508+P47870+P62813, C260A/C282A/C312A/C319A/C341A/F313C/N289C); assay: as above; format: cell-based, rat α1 and γ2s, human β2; conditions: change vs initial response, compared with Cys-less; EC50 GABA; DTT 2 mM 2 min
[14] = target: β2(N265C)-containing GABAARs (UniProt P18508+P47870+P62813, C260A/C282A/C312A/C319A/C341A/N289C); assay: as above; format: cell-based, rat α1 and γ2s, human β2
Sequence of β2(N265C)-containing GABAARs (P62813 28-455 C260A/C319A): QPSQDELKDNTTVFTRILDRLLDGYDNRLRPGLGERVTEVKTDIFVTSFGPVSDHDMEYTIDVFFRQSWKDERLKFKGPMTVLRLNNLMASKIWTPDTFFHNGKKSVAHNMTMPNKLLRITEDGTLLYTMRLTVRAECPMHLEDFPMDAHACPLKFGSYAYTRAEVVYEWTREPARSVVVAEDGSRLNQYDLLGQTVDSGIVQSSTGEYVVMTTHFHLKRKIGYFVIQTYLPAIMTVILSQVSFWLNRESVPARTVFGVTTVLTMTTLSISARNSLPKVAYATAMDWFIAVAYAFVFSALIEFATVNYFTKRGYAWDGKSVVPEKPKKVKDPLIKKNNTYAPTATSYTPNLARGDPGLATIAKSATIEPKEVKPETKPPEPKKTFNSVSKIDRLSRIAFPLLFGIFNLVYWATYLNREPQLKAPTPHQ
Sequence of β2(N265C)-containing GABAARs (P47870 25-474 isoform P47870-1 N289C/C312A limits assumed): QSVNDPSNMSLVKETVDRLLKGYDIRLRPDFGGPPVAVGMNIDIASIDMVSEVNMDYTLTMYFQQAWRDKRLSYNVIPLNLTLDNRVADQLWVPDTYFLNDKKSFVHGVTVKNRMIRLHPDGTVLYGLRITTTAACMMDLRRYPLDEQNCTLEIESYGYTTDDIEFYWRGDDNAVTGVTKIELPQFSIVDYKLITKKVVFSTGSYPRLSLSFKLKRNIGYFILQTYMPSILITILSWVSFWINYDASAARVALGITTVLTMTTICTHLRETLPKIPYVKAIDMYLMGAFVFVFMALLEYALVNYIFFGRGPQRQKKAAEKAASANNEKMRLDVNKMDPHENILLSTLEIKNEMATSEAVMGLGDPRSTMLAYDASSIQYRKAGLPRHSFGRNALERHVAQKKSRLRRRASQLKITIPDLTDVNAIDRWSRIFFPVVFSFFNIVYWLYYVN
Sequence of β2(N265C)-containing GABAARs (P18508 39-466 C282A/C341A): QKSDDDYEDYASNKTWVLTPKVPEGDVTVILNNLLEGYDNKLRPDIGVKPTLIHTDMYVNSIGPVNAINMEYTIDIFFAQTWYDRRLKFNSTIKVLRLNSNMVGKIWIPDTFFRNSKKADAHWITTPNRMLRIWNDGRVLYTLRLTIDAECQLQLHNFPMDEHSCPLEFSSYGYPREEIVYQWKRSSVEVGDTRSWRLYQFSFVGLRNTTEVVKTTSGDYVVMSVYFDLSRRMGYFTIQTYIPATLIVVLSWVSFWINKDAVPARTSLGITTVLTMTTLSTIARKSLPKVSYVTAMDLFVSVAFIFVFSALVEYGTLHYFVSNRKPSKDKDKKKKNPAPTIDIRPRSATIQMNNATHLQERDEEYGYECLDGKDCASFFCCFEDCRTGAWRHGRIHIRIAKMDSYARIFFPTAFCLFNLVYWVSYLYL

α1β2(F289C)γ2 GABAAR = α1β2(F289C)γ2 GABAAR (UniProt P18508+P47870+P62813, C260A/C282A/C312A/C319A/C341A/F313C); assay: as above; format: cell-based, rat α1 and γ2s, human β2
Sequence of α1β2(F289C)γ2 GABAAR (P62813 28-455 C260A/C319A): as the sequence (P62813 28-455 C260A/C319A) above
Sequence of α1β2(F289C)γ2 GABAAR (P47870 25-474 isoform P47870-1 C312A/F313C limits assumed): as the sequence (P47870 25-474 isoform P47870-1 N289C/C312A limits assumed) above, with C265N, F289C counted along it
Sequence of α1β2(F289C)γ2 GABAAR (P18508 39-466 C282A/C341A): as the sequence (P18508 39-466 C282A/C341A) above

α1β2(M286C)γ2 GABAAR = α1β2(M286C)γ2 GABAAR (UniProt P18508+P47870+P62813, C260A/C282A/C312A/C319A/C341A/M310C); assay: as above; format: cell-based, rat α1 and γ2s, human β2
Sequence of α1β2(M286C)γ2 GABAAR (P62813 28-455 C260A/C319A): as the sequence (P62813 28-455 C260A/C319A) above
Sequence of α1β2(M286C)γ2 GABAAR (P47870 25-474 isoform P47870-1 M310C/C312A limits assumed): as the sequence (P47870 25-474 isoform P47870-1 N289C/C312A limits assumed) above, with C265N, M286C counted along it
Sequence of α1β2(M286C)γ2 GABAAR (P18508 39-466 C282A/C341A): as the sequence (P18508 39-466 C282A/C341A) above

α1(L232C)β2γ2 GABAAR = α1(L232C)β2γ2 GABAAR (UniProt P18508+P47870+P62813, C260A/C282A/C312A/C319A/C341A/L258C); assay: as above; format: cell-based, rat α1 and γ2s, human β2
[15] = target: β2(L285C)-containing GABAARs (UniProt P18508+P47870+P62813, C260A/C282A/C312A/C319A/C341A/L309C); assay: as above; format: cell-based, rat α1 and γ2s, human β2
α1(Q229C)β2γ2 GABAAR = α1(Q229C)β2γ2 GABAAR (UniProt P18508+P47870+P62813, C260A/C282A/C312A/C319A/C341A/Q255C); assay: as above; format: cell-based, rat α1 and γ2s, human β2; conditions: Butanol (33 mM) modulation of EC10 GABA; after versus before BMTS labeling
[16] = target: β2C288-containing GABAARs (UniProt P18508+P47870+P62813, C260A/C282A/C319A/C341A); assay: as above; format: cell-based, rat α1 and γ2s, human β2; conditions: EC10 GABA; BMTS 0.5 mM co-applied with maximal GABA
α1β2(T225C)γ2 GABAAR = α1β2(T225C)γ2 GABAAR (UniProt P18508+P47870+P62813, C260A/C282A/C312A/C319A/C341A/T249C); assay: as above; format: cell-based, rat α1 and γ2s, human β2; conditions: EC10 GABA; BMTS 0.5 mM co-applied with maximal GABA
[17] = system: mutated alcohol-sensitive GLIC; conditions: inter-subunit binding; ref Howard et al. 2011; cited from earlier work
[18] = change vs initial response, compared with Cys-less, EC50 GABA, DTT 2 mM 2 min
[19] = Isoflurane 0.3 mM on EC10 GABA, after versus before BMTS labeling
[20] = single cysteine mutant, no treatment
[21] = Isoflurane 0.3 and 0.9 mM on EC10 GABA, after Cu^++:Phen versus after DTT
[22] = Butanol (33 mM) modulation of EC10 GABA, after versus before BMTS labeling
[23] = Butanol modulation of EC10 GABA, 11 and 33 mM, after Cu^++:Phen versus after DTT
[24] = EC10 GABA, BMTS 0.5 mM co-applied with maximal GABA

Structure (SMILES): [Zn] [zinc]
- Modulation of the Cys-less receptor compared with WT [1]: essentially the same as WT

Structure (SMILES): CCCCCCCCO [octanol]
- Block of etomidate analog photolabeling (bovine GABAAR): neither octanol nor ethanol could block
- Block of photolabeling [2]: blocked

Structure (SMILES): CC(C)c1cccc(C(C)C)c1O [propofol]
- Effect on channel function (wild-type GLIC): inhibits

Structure (SMILES): O[C@@H](CS)[C@@H](O)CS (racemic) [DTT, dithiothreitol]
- GABA responses After DTT [3]: Increase
- GABA responses After DTT [4]: Increase
- GABA responses After DTT [5]: Decrease
- GABA responses After DTT [6, 18]: No change
- GABA responses After DTT ([1]; change vs initial response, EC50 GABA, DTT 2 mM 2 min): No change
- GABA responses After DTT [7]: Decrease
- GABA responses After DTT [8, 18]: No change
- GABA responses After DTT [9]: Increase
- GABA responses After DTT [10, 18]: No change
- GABA responses After DTT [11, 18]: No change
- GABA responses After DTT [12]: Increase
- GABA responses After DTT [13]: Increase

Structure (SMILES): FC(F)OC(Cl)C(F)(F)F (stereo not drawn) [Isoflurane]
- Block of etomidate analog photolabeling (bovine GABAAR): isoflurane could
- Isoflurane potentiation after BMTS labeling [14, 19]: decreased
- Isoflurane effect after BMTS labeling (α1β2(F289C)γ2 GABAAR; EC10 GABA, after versus before BMTS treatment, data not shown): switched from very small, and even inhibitory effects, to potentiation
- Isoflurane potentiation of GABA responses compared with the Cys-less receptor (α1β2(F289C)γ2 GABAAR; [20]): decreased
- Isoflurane potentiation after BMTS labeling (α1β2(M286C)γ2 GABAAR; [19]): decreased
- Isoflurane potentiation after oxidation (crosslink) [8, 21]: decrease
- Isoflurane effect after oxidation (crosslink) [11, 21]: no changes

Structure (SMILES): FC(F)OC(F)C(F)(F)F (stereo not drawn) [desflurane]
- Effect on channel function (wild-type GLIC): inhibits

Structure (SMILES): CCCCO [Butanol, butanol]
- Butanol effect after BMTS labeling [14, 22]: Decrease
- Butanol potentiation of GABA responses compared with the Cys-less receptor [14, 20]: decreased
- Butanol effect after BMTS labeling (α1(L232C)β2γ2 GABAAR; [22]): No change
- Butanol potentiation of GABA responses compared with the Cys-less receptor (α1(L232C)β2γ2 GABAAR; [20]): decreased
- Butanol potentiation of GABA responses compared with the Cys-less receptor (α1β2(F289C)γ2 GABAAR; [20]): decreased
- Butanol effect After crosslink [6, 23]: Decrease
- Butanol effect after BMTS labeling [1, 22]: No change/ Small decrease
- Butanol effect After crosslink [1, 23]: No change
- Butanol effect after BMTS labeling (α1β2(M286C)γ2 GABAAR; [22]): Decrease
- Butanol potentiation of GABA responses compared with the Cys-less receptor (α1β2(M286C)γ2 GABAAR; [20]): decreased
- Butanol effect after BMTS labeling [15, 22]: No change
- Butanol potentiation of GABA responses compared with the Cys-less receptor [15, 20]: decreased
- Butanol effect After crosslink [8, 23]: Decrease
- Change in the butanol potentiation after oxidation ([8]; Butanol on EC10 GABA, after Cu^++:Phen versus after DTT): −51%
- Butanol effect after BMTS labeling (α1(Q229C)β2γ2 GABAAR): No change
- Butanol effect After crosslink [10, 23]: Decrease
- Butanol effect After crosslink [11, 23]: No change

Structure (SMILES): CCCCSS(C)(=O)=O [BMTS, butyl methanethiosulfonate]
- GABA responses after BMTS + GABA (α1(L232C)β2γ2 GABAAR; [24]): Increase
- GABA responses after BMTS + GABA [16]: No change
- GABA responses after BMTS + GABA [1, 24]: No change
- GABA responses after BMTS + GABA (α1β2(M286C)γ2 GABAAR; [24]): Increase
- GABA responses after BMTS + GABA (α1β2(T225C)γ2 GABAAR): No net change

Structure (SMILES): CCO [ethanol]
- Modulation of the Cys-less receptor compared with WT [1]: essentially the same as WT
- Effect on channel function [17]: potentiates
